melting point [°C]	Compound
206 to 206.5	CN1C(=NC2CCCCC2)SCC1CC(=O)NCc1ccccc1.Cl (stereo not shown)
210 to 211	COc1ccc(NC(=O)CC2CSC(=NC3CCCC3)N2C)cc1.Cl (stereo not shown)
199.5 to 200	CN1C(=NC2CCCC2)SCC1CC(=O)Nc1ccc(CC#N)cc1.Cl (stereo not shown)
185 to 186.5	Cc1ccc(NC(=O)CC2CSC(=NC3CCCC3)N2C)c(Cl)c1.Cl (stereo not shown)
189 to 190	Cc1ccc(NC(=O)CC2CSC(=NC3CCCC3)N2C)c(F)c1.Cl (stereo not shown)
240 to 242.5	CN1C(=NC2CCCC2)SCC1CC(=O)Nc1ccc(F)cc1F.Cl (stereo not shown)
231.5 to 233	CN1C(=NC2CCCC2)SCC1CC(=O)Nc1ccccc1.Cl (stereo not shown)
193 to 195	COc1ccc(CNC(=O)CC2CSC(=NC3CCCCC3)N2C)cc1.Cl (stereo not shown)
219 to 220	CCOc1ccc(NC(=O)CC2CSC(=NC3CC3)N2C)cc1.Cl (stereo not shown)
252 to 253.5	CN1C(=NC2CC2)SCC1CC(=O)Nc1ccc(F)cc1.Cl (stereo not shown)
237 to 239	CN1C(=NC2CC2)SCC1CC(=O)Nc1ccc(F)cc1Cl.Cl (stereo not shown)
245 to 245.5	CN1C(=NC2CC2)SCC1CC(=O)Nc1ccc(CC#N)cc1.Cl (stereo not shown)
227 to 228.5	CN1C(=NC2CC2)SCC1CC(=O)Nc1ccc(Br)cc1.Cl (stereo not shown)
212 to 212.5	Cc1ccc(NC(=O)CC2CSC(=NC3CC3)N2C)c(Cl)c1.Cl (stereo not shown)
260.5 to 261	CN1C(=NC2CC2)SCC1CC(=O)Nc1cc(Cl)cc(Cl)c1.Cl (stereo not shown)
199.5 to 200.5	Cc1ccc(NC(=O)CC2CSC(=NC3CC3)N2C)c(F)c1.Cl (stereo not shown)
245 to 246	CN1C(=NC2CC2)SCC1CC(=O)Nc1ccc(F)cc1F.Cl (stereo not shown)
233.5 to 234.5	CN1C(=NC2CC2)SCC1CC(=O)Nc1cc(Cl)ccc1F.Cl (stereo not shown)
237.5 to 238	CN1C(=NC2CC2)SCC1CC(=O)Nc1cc([N+](=O)[O-])ccc1F.Cl (stereo not shown)
237 to 237.5	CN1C(=NC2CC2)SCC1CC(=O)Nc1ccc(Cl)cc1F.Cl (stereo not shown)
241.5 to 242.5	CN1C(=NC2CC2)SCC1CC(=O)Nc1ccc(Cl)cc1.Cl (stereo not shown)
240.5 to 241	CN1C(=NC2CC2)SCC1CC(=O)Nc1ccccc1.Cl (stereo not shown)
238 to 238.5	CC(C)c1ccc(NC(=O)CC2CSC(=NC3CC3)N2C)cc1.Cl (stereo not shown)
200.5 to 202.5	CN1C(=NC2CC2)SCC1CC(=O)NCc1ccc(F)cc1.Cl (stereo not shown)
225.5 to 227	CN1C(=NC2CC2)SCC1CC(=O)NCc1ccc(Cl)cc1.Cl (stereo not shown)
220.5 to 222	COc1ccc(CNC(=O)CC2CSC(=NC3CC3)N2C)cc1.Cl (stereo not shown)
160.5 to 162	CN1C(=NC2CCCC2)SCC1CC(=O)NCc1ccc(F)cc1.Cl (stereo not shown)

melting point [°C]	Compound
172 to 173.5	COc1ccc(CNC(=O)CC2CSC(=NC3CCCC3)N2C)cc1.Cl (stereo not shown)
250.8	CN1C(=NCC2CCCCC2)SCC1CC(=O)Nc1ccc(Oc2ccccc2)cc1.Cl (stereo not shown)
216.4	Cc1ccc(NC(=O)CC2CSC(=NC3CCCCC3)N2C2CC2)cc1.Cl (stereo not shown)
218.3	CCN1C(=NC2CCCCC2)SCC1CC(=O)Nc1ccc(Cl)cc1.Cl (stereo not shown)
243.4	CCCN1C(=NC2CCCCC2)SCC1CC(=O)Nc1cc(C(F)(F)F)cc(C(F)(F)F)c1.Cl (stereo not shown)
234.6	Cl.O=C(CC1CSC(=NC2CCCCC2)N1Cc1ccccc1)Nc1cc(C(F)(F)F)cc(C(F)(F)F)c1 (stereo not shown)
209.5	Cl.O=C(CC1CSC(=NC2CCCCC2)N1Cc1ccccc1)Nc1ccc(Oc2ccccc2)cc1 (stereo not shown)
166.4	Cl.O=C(CC1CSC(=NC2CCCCC2)N1Cc1ccccc1)Nc1cc([N+](=O)[O-])ccc1F (stereo not shown)
199.7	CC(C)c1ccc(NC(=O)CC2CSC(=NC3CCCCC3)N2C2CCCCC2)cc1.Cl (stereo not shown)
256	Cl.O=C(CC1CSC(=NC2CCCCC2)N1C1CCCCC1)Nc1ccc(F)cc1 (stereo not shown)
173	Cc1ccc(NC(=O)CC2CSC(=NC3CCCCC3)N2C2CCCCC2)cc1Cl.Cl (stereo not shown)
158	Cl.O=C(CC1CSC(=NC2CCCCC2)N1C1CCCCC1)Nc1cc(Cl)ccc1F (stereo not shown)
152	Cl.O=C(CC1CSC(=NC2CCCCC2)N1C1CCCCC1)NCc1ccc(Cl)cc1 (stereo not shown)
244	CC(C)(C)c1ccc(NC(=O)CC2CSC(=NC3CCCCC3)N2C2CCCCC2)cc1.Cl (stereo not shown)
202	Cl.O=C(CC1CSC(=NC2CCCCC2)N1C1CCCCC1)Nc1cc(Cl)cc(Cl)c1 (stereo not shown)
211.4	CN1C(=NC2CCCCCC2)SCC1C(=O)Nc1ccccc1.Cl (stereo not shown)
231 to 234	CC1SC(=NC2CCCCC2)N(C)C1CC(=O)Nc1ccccc1.Cl (stereo not shown)
255 to 257	CC1SC(=NC2CCCCC2)N(C)C1CC(=O)Nc1ccc(C(C)(C)C)cc1.Cl (stereo not shown)
186 to 188	CC1SC(=NC2CCCC2)N(C)C1CC(=O)Nc1ccccc1.Cl (stereo not shown)
228 to 229	Cc1ccc(NC(=O)CC2C(C)SC(=NC3CCCC3)N2C)cc1.Cl (stereo not shown)
215 to 217	CC1SC(=NC2CCCCC2)N(C)C1CC(=O)Nc1ccc([N+](=O)[O-])cc1.Cl (stereo not shown)
153	CC1SC(=NC2CCCC2)N(C)C1CC(=O)Nc1ccccc1F.Cl (stereo not shown)
264.8	Br.CN1C(=NC2CCCCCC2)SCC1C(=O)Nc1cc([N+](=O)[O-])ccc1F (stereo not shown)
265.3	CN1C(=NC2CCCCCC2)SCC1C(=O)Nc1ccc(F)cc1.Cl (stereo not shown)
278 to 279	Br.CCc1ccc(NC(=O)C2CSC(=NC3CCCCCC3)N2C)cc1 (stereo not shown)
278.9	Br.Cc1ccc(NC(=O)C2CSC(=NC3CCCCCC3)N2C)cc1 (stereo not shown)
275.2	Br.CN1C(=NC2CCCCCC2)SCC1C(=O)Nc1cc(Cl)cc(Cl)c1 (stereo not shown)

melting point [°C]	Compound
286.5	Br.CN1C(=NC2CCCCCC2)SCC1C(=O)Nc1ccc(Cl)cc1 (stereo not shown)
240.8	Br.CCCCc1ccc(NC(=O)C2CSC(=NC3CCCCCC3)N2C)cc1 (stereo not shown)
282.2	Br.CC(C)c1ccc(NC(=O)C2CSC(=NC3CCCCCC3)N2C)cc1 (stereo not shown)
149.5	Br.CN1C(=NC2CCCCCC2)SCC1C(=O)Nc1ccc(Oc2ccccc2)cc1 (stereo not shown)
169.9	Br.CN1C(=NC2CCCCCC2)SCC1C(=O)Nc1ccc(C(C)(C)C)cc1 (stereo not shown)
262.2	Br.CN1C(=NC2CCCCCC2)SCC1C(=O)Nc1cc(Cl)ccc1F (stereo not shown)
274.1	Br.CN1C(=NC2CCCCCC2)SCC1C(=O)Nc1cc(C(F)(F)F)cc(C(F)(F)F)c1 (stereo not shown)
164	CCCCN1C(=NC23CC4CC(CC(C4)C2)C3)SCC1CC(=O)Nc1cc(Cl)cc(Cl)c1.Cl (stereo not shown)
252	CCCCN1C(=NC23CC4CC(CC(C4)C2)C3)SCC1CC(=O)Nc1cc(CF)cc(CF)c1.Cl (stereo not shown)
127	CCCCN1C(=NC23CC4CC(CC(C4)C2)C3)SCC1CC(=O)Nc1ccc(Oc2ccccc2)cc1.Cl (stereo not shown)
178	CCCCc1ccc(NC(=O)CC2CSC(=NC34CC5CC(CC(C5)C3)C4)N2C(C)C)cc1.Cl (stereo not shown)
127	CCCCc1ccc(NC(=O)CC2CSC(=NC3C4CC5CC(C4)CC3C5)N2C)cc1.Cl (stereo not shown)
245	CC(C)c1ccc(NC(=O)CC2CSC(=NC3C4CC5CC(C4)CC3C5)N2C)cc1.Cl (stereo not shown)
146 to 147	CN1C(=NC2CCCCC2)SCC1CC(=O)Nc1ccc2c(c1)OCO2.Cl (stereo not shown) (hydrate or solvate) [KHG24086, (2-cyclohexylimino-3-methyl-1,3-thiazolidine-4-yl)-N-(3,4-methylenedioxyphenyl)-acetamide hydrochloride]
258 to 260	COc1ccc(NC(=O)CC2C(C)SC(=NC3CCCCC3)N2C)cc1 (stereo not shown) [KHG24481, (2-cyclohexylimino-3,5-dimethyl-1,3-thiazolidine-4-yl)-N-(4-methoxyphenyl)-acetamide]
250 to 251	COc1ccc(NC(=O)CC2C(C)SC(=NC3CCCCCC3)N2C)cc1 (stereo not shown) [KHG24485, (2-cycloheptylimino-3,5-dimethyl-1,3-thiazolidine-4-yl)-N-(4-methoxyphenyl)-acetamide]
208	CN1C(=NC2CCCCCC2)SCC1C(=O)Nc1ccccc1 (stereo not shown) [KHG24622, (2-cycloheptylimino-3-methyl-1,3-thiazolidine-4-yl)-N-phenyl-carboxamide]
198.4	CN1C(=NC2CCCCCC2)SCC1C(=O)Nc1ccccc1Cl (stereo not shown) [KHG24624, (2-cycloheptylimino-3-methyl-1,3-thiazolidine-4-yl)-N-(2-chlorophenyl)-carboxamide]
184.2	CN1C(=NC2CCCCCC2)SCC1C(=O)Nc1cc(F)ccc1F (stereo not shown) [KHG24625, (2-cycloheptylimino-3-methyl-1,3-thiazolidine-4-yl)-N-(2,5-difluorophenyl)-carboxamide]
169.6	CN1C(=NC2CCCCCC2)SCC1C(=O)Nc1ccc(F)cc1 (stereo not shown) [KHG24631, (2-cycloheptylimino-3-methyl-1,3-thiazolidine-4-yl)-N-(4-fluorophenyl)-carboxamide]
151.1	CN1C(=NC2CCCCCC2)SCC1C(=O)Nc1cc([N+](=O)[O-])ccc1F (stereo not shown) [KHG24661, (2-cycloheptylimino-3-methyl-1,3-thiazolidine-4-yl)-N-(2-fluoro-5-nitrophenyl)-carboxamide]
194 to 195	CCc1ccc(NC(=O)C2CSC(=NC3CCCCCC3)N2C)cc1 (stereo not shown) [KHG24664, (2-cycloheptylimino-3-methyl-1,3-thiazolidine-4-yl)-N-(4-ethylphenyl)-carboxamide]
191.2	CN1C(=NC2CCCCCC2)SCC1C(=O)Nc1cc(Cl)cc(Cl)c1 (stereo not shown) [KHG24674, (2-cycloheptylimino-3-methyl-1,3-thiazolidine-4-yl)-N-(3,5-dichlorophenyl)-carboxamide]
199.7	CN1C(=NC2CCCCCC2)SCC1C(=O)Nc1ccc(Cl)cc1 (stereo not shown) [KHG24677, (2-cycloheptylimino-3-methyl-1,3-thiazolidine-4-yl)-N-(4-chlorophenyl)-carboxamide]
207.6	CC(C)c1ccc(NC(=O)C2CSC(=NC3CCCCCC3)N2C)cc1 (stereo not shown) [KHG24680, (2-cycloheptylimino-3-methyl-1,3-thiazolidine-4-yl)-N-(4-isopropylphenyl)-carboxamide]

From US7998989B2, “2-Imino-1,3-thiazoline-based compounds and T-type calcium channel inhibitors containing the same” (Korea Institute of Science and Technology, priority 2007, dated 2011)
